Measurements reported in the supplement of paper PMC11208160.

Assay: recombinant UMI read abundance after kanamycin selection (control-corrected) (log10(CPM+1)); higher = more efficient recombination; extreme values may be limits of the assay; sequences stand for … in AGTGCAGAGAAAATCGGCCAGTTTTCTCTGCCTGCAGTCCGCATGCCGTGGGACCCCTTGGGTTCTAACCTGTTGCCTAGATTTATGCAGCGGACTGCCTTTCTCCCAAAGTGATAAACCGG…AGGTTGGTTTCACT; site = the 11-nt donor
Summary of the method: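 Two replicates each of selected and unselected plating were used in this pooled Escherichia coli screen of donor and donor-binding-loop pairs for the IS621 bridge recombinase. Selection was with IPTG (0.07 mM) and kanamycin. Counts of recombinant UMIs, amplified across the donor–target junction, were converted to CPM, averaged, scaled by control-derived factors and reported as log10(CPM+1).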
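Note: IS621 bridge recombinase in Escherichia coli cells against a fixed T5 target plasmid.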

Sequence	recombinant UMI read abundance (log10)
TCAGAGACATGGACCGGTTTTCCCGGTAATCCGTATTTGGG (site TCAGAGACTCG)	0
TCAGAGACATGGACCGGTTTTCCCGGTAATCCGTATTTGGG (site TCAGAGACTCT)	0.0246
TCAGATTCATGGACCGGTTTTCCCGGTAATCCGTATTTGGA (site TCAGATTCTTC)	1.34
TCAGGGACATGGACCGGTTTTCCCGGTAATCCGTATTTGGG (site TCAGGGACTCC)	0.00795
TCAGGTTCATGGACCGGTTTTCCCGGTAATCCGTATTTGCT (site TCAGGTTCTAG)	1.27
TCAGTAGCATGGACCGGTTTTCCCGGTAATCCGTATTTGCA (site ACAGTATCTTG)	2.25
TCAGTAGCATGGACCGGTTTTCCCGGTAATCCGTATTTGCA (site TCAGTAGCTTG)	1.9
TCAGTCTCATGGACCGGTTTTCCCGGTAATCCGTATTTGAT (site TCAGTCTCTAT)	2.42
TCAGTGCCATGGACCGGTTTTCCCGGTAATCCGTATTTGCG (site TCAGTGCCTCG)	0.0165
TCATACCCATGGACCGGTTTTCCCGGTAATCCGTATTTGCA (site TCATACACTTG)	0
TCATACCCATGGACCGGTTTTCCCGGTAATCCGTATTTGCA (site TCATACCCTTG)	0.0304
TCATACCCATGGACCGGTTTTCCCGGTAATCCGTATTTGCA (site TCATACGCTTG)	0
TCATACCCATGGACCGGTTTTCCCGGTAATCCGTATTTGCA (site TCATACTCTTG)	0.995
TCATACGCATGGACCGGTTTTCCCGGTAATCCGTATTTGCA (site TCATACACTTG)	1.03
TCATACGCATGGACCGGTTTTCCCGGTAATCCGTATTTGCA (site TCATACCCTTG)	0.169
TCATACGCATGGACCGGTTTTCCCGGTAATCCGTATTTGCA (site TCATACGCTTG)	2.25

Sequence	recombinant UMI read abundance (log10)
TCATACGCATGGACCGGTTTTCCCGGTAATCCGTATTTGCA (site TCATACTCTTG)	0.604
TCATACTCATGGACCGGTTTTCCCGGTAATCCGTATTTGCA (site ACATACTCTTG)	1.34
TCATACTCATGGACCGGTTTTCCCGGTAATCCGTATTTGCA (site CCATACTCTTG)	2.03
TCATACTCATGGACCGGTTTTCCCGGTAATCCGTATTTGCA (site GCATACTCTTG)	1.3
TCATACTCATGGACCGGTTTTCCCGGTAATCCGTATTTGCA (site TAATACTCTTG)	1.45
TCATACTCATGGACCGGTTTTCCCGGTAATCCGTATTTGCA (site TCAAACTCTTG)	1.19
TCATACTCATGGACCGGTTTTCCCGGTAATCCGTATTTGCA (site TCACACTCTTG)	1.3
TCATACTCATGGACCGGTTTTCCCGGTAATCCGTATTTGCA (site TCAGACTCTTG)	0
TCATACTCATGGACCGGTTTTCCCGGTAATCCGTATTTGCA (site TCATAATCTTG)	0.464
TCATACTCATGGACCGGTTTTCCCGGTAATCCGTATTTGCA (site TCATACACTTG)	0.64
TCATACTCATGGACCGGTTTTCCCGGTAATCCGTATTTGCA (site TCATACCCTTG)	0.303
TCATACTCATGGACCGGTTTTCCCGGTAATCCGTATTTGCA (site TCATACGCTTG)	0.00277
TCATACTCATGGACCGGTTTTCCCGGTAATCCGTATTTGCA (site TCATACTCTAG)	0
TCATACTCATGGACCGGTTTTCCCGGTAATCCGTATTTGCA (site TCATACTCTCG)	0.514
TCATACTCATGGACCGGTTTTCCCGGTAATCCGTATTTGCA (site TCATACTCTGG)	0
TCATACTCATGGACCGGTTTTCCCGGTAATCCGTATTTGCA (site TCATACTCTTA)	0
